Source: article PMC6274474, “Synthesis and Cytotoxic Activity on Human Cancer Cells of Novel Isoquinolinequinone–Amino Acid Derivatives” (Molecules, 2016)
Where two headings read alike, the source gives them in different places.

What was measured:
[1] = test system: MRC-5 normal human lung fibroblasts; assay: MTT cytotoxicity assay, 72 h, normal human lung fibroblasts; type: cell-based; settings: for IC50: MRC5, normal human lung fibroblasts, MTT, 72 h exposure, six determinations, read-out: IC50 ± SEM MRC-5
Protocol: (§1) The series of isoquinolinequinone amino ester conjugates (Table 1) and the bromine derivatives (Table 2) were evaluated for their in vitro cytotoxic activities against normal human lung fibroblast (MRC-5) and three human cancer cells lines: human gastric adenocarcinoma (AGS), human lung cancer (SK-MES-1), and human bladder carcinoma (J82), in 72 h drug exposure assays. The cytotoxic activities of the new compounds were measured using conventional microculture tetrazolium reduction assays. The cytotoxic activities of each of the quinones are expressed in terms of IC50.
(§2) Cytotoxicity assay (Table 3 and Table 4). […] MRC-5, SK-MES-1, and J82 cells were grown in Eagle’s minimal essential medium (EMEM) containing 2 mM L-glutamine, 1 mM sodium pyruvate and 1.5 g/L sodium hydrogen carbonate. AGS cells were grown in Ham F-12 supplemented with 2 mM L-glutamine and 1.5 g/L sodium hydrogen carbonate. Finally, HL-60 cells were grown in RPMI medium. […] For the cytotoxicity experiments, cells were seeded into 96-well plates at a density of 50,000 cells/mL. After reaching confluence, cells were incubated for three days with compounds at varied concentrations ranging from 0 up to 100 μM while untreated cells (medium containing 1% DMSO) were used as controls. Cytotoxicity was assessed using the MTT (3-(4,5-dimethylthiazol-2-yl)-2,5-diphenyltetrazolium bromide) reduction assay. MTT was used at 1 mg/mL and the blue formazan crystals, formed during MTT reduction, were dissolved adding 100 μL of ethanol (acidified with HCl). The absorbance was measured at 550 nm using a Universal Microplate Reader (ELX 800, Bio-Tek Instruments Inc., Winooski, VT, USA). Values were the means of six replicates for each concentration and transformed to percentage of controls. The IC50 value was graphically obtained from the dose–response curves by adjusting them to a sigmoidal model (a + (b − a)/1 + 10(x − c)), where c = log IC50.

[2] = test system: AGS human gastric adenocarcinoma cells; assay: MTT cytotoxicity assay, 72 h, gastric adenocarcinoma cells; type: cell-based; settings: 72 h exposure, six determinations, read-out: IC50 ± SEM AGS
Protocol: as §1, §2

[3] = test system: SK-MES-1 human lung cancer cells; assay: MTT cytotoxicity assay, 72 h, lung cancer cells; type: cell-based; settings: 72 h exposure, six determinations, read-out: IC50 ± SEM SK-MES-1
Protocol: as §1, §2

[4] = test system: J82 human bladder carcinoma cells; assay: MTT cytotoxicity assay, 72 h, bladder carcinoma cells; type: cell-based; settings: 72 h exposure, six determinations, read-out: IC50 ± SEM J82
Protocol: as §1, §2

[5] = test system: AGS, SK-MES-1 and J82 human cancer cell lines; assay: MTT cytotoxicity, 72 h, panel summary (mean/range/selective index) over AGS, SK-MES-1, J82 vs MRC-5; type: cell-based; settings: for IC50: Homo sapiens; for IC50 / MSI: Mean Selective Index = IC50 values for fibroblasts/IC50 values tumor cells: SK-MES-1, J82; for MSI: Mean Selective Index = IC50 values for fibroblasts/IC50 values tumor cells: MRC-5 vs AGS
Protocol: as §1, §2

[6] = test system: AG 1523 normal human fibroblasts; assay: MTT cytotoxicity assay, 48 h, normal human fibroblasts; type: cell-based; settings: AG1523, healthy non-tumor fibroblasts, three experiments, read-out: IC50 ± SEM AG 1523
Protocol: (§3) Cytotoxicity assay (Table 5). […] The cytotoxic effect of compounds on cell lines was assessed using the MTT assay as reported previously. Briefly, 10,000 cells/well were plated for 24 h in 96-well plates and, after reaching confluence, the cells were incubated for 48 h with DMSO or in the presence of compounds. Cells were washed twice with warm phosphate-buffered saline (PBS) and further incubated for 2 h with MTT (0.5 mg/mL). The blue formazan crystals were then solubilized by adding 100 μL DMSO/well and optical density of colored solutions was read at 550 nm. Results are expressed as % of MTT reduction compared to untreated control conditions. The calculation of IC50 values was performed by using GraphPad Prism software (San Diego, CA, USA).

[7] = test system: T24 (bladder) human cancer cells; assay: MTT cytotoxicity assay, 48 h, bladder cancer cells; type: cell-based; settings: three experiments, read-out: IC50 ± SEM T24
Protocol: as §3

[8] = test system: DU-145 (prostate) human cancer cells; assay: MTT cytotoxicity assay, 48 h, prostate cancer cells; type: cell-based; settings: three experiments, read-out: IC50 ± SEM DU-145
Protocol: as §3

[9] = test system: MCF-7 (breast) human cancer cells; assay: MTT cytotoxicity assay, 48 h, breast cancer cells; type: cell-based; settings: MCF7, three experiments, read-out: IC50 ± SEM MCF-7
Protocol: as §3

[10] = test system: T24, DU-145 and MCF-7 human cancer cell lines; assay: MTT cytotoxicity, 48 h, panel summary (range/selective index) over T24, DU-145, MCF-7 vs AG 1523; type: cell-based
Protocol: as §3

[11] = SK-MES-1, mean over AGS, read-out: mean IC50 on cancer cells
[12] = SK-MES-1, 72 h, range over AGS, 72 h MTT, read-out: IC50 values range over the cancer cell lines

SMILES | IC50 [1] [nM] | IC50 [2] [nM] | IC50 [3] [nM] | IC50 [4] [nM] | IC50 [5, 11] [nM] | MSI: Mean Selective Index = IC50 values for fibroblasts/IC50 values tumor cells [5] | IC50 [5, 12] [nM] | melting point [°C] | SI (normal fibroblasts) ([1]; as printed for normal fibroblasts) | IC50 [6] [nM] | IC50 [7] [nM] | IC50 [8] [nM] | IC50 [9] [nM] | MSI on lung and bladder cancer cells ([5]; MRC-5 vs SK-MES-1 and J82 only) | SI ([10]; AG 1523 fibroblasts vs T24, DU-145, MCF-7) | IC50 ([10]; Homo sapiens, range over T24, DU-145, MCF-7, 48 h MTT, read-out: IC50 range in cancer cells) [nM]
COC(=O)c1c(C)ncc2c1C(=O)C=C(N[C@@H](C)C(=O)OC)C2=O [Compound 2a, Methyl 6- and 7-(1-methoxy-1-oxopropan-2-ylamino)-3-methyl-5,8-dioxo-5,8-dihydroisoquinoline-4-carboxylate] | 9040 ± 690 | 2250 ± 150 | 2650 ± 190 | 6250 ± 440 | < 4000 | – | – | – | – | – | – | – | – | – | – | –
COC(=O)c1c(C)ncc2c1C(=O)C=C(N[C@H](C(=O)OC)C(C)C)C2=O [Compound 3a, Methyl 6- and 7-(1-methoxy-3-methyl-1-oxobutan-2-ylamino)-3-methyl-5,8-dioxo-5,8-dihydro-isoquinoline-4-carboxylate] | 4940 ± 250 | 1940 ± 80 | 4620 ± 280 | 7490 ± 440 | – | 1.10 | – | – | – | – | – | – | – | – | – | –
COC(=O)c1c(C)ncc2c1C(=O)C=C(N[C@@H](CC(C)C)C(=O)OC)C2=O [Compound 4a] | 5700 ± 290 | 2970 ± 150 | 4560 ± 310 | 7650 ± 510 | – | 1.13 | – | – | – | – | – | – | – | – | – | –
COC(=O)c1c(C)ncc2c1C(=O)C(N[C@@H](CC(C)C)C(=O)OC)=CC2=O [Compound 4b, Methyl 6- and 7-(1-methoxy-4-methyl-1-oxopentan-2-ylamino)-3-methyl-5,8-dioxo-5,8-dihydroisoquinoline-4-carboxylate] | 1770 ± 140 | 1590 ± 70 | 2220 ± 120 | 2350 ± 90 | – | 0.86 | 580 to 3180 | 58.5 to 60.5 | – | – | – | – | – | – | – | –
COC(=O)c1c(C)ncc2c1C(=O)C=C(N[C@@H](CCSC)C(=O)OC)C2=O [Compound 5a] | 5220 ± 310 | 2540 ± 210 | 2930 ± 110 | 6000 ± 320 | – | 1.42 | – | – | – | – | – | – | – | – | – | –
COC(=O)c1c(C)ncc2c1C(=O)C=C(N[C@@H](Cc1ccccc1)C(=O)OC)C2=O [Compound 6a, Methyl 6- and 7-(1-methoxy-1-oxo-3-phenylpropan-2-ylamino)-3-methyl-5,8-dioxo-5,8-dihydroisoquinoline-4-carboxylate] | 6730 ± 340 | 1850 ± 130 | 2500 ± 150 | 4680 ± 230 | < 4000 | – | – | – | – | – | – | – | – | – | – | –
COC(=O)c1c(C)ncc2c1C(=O)C(N[C@@H](Cc1ccc(O)cc1)C(=O)OC)=CC2=O [Compound 7b] | 3740 ± 260 | 1530 ± 60 | 2570 ± 120 | 7110 ± 550 | – | 1.00 | – | 76.5 to 78.5 | – | – | – | – | – | – | – | –
COC(=O)c1c(C)ncc2c1C(=O)C=C(N[C@@H](Cc1c[nH]c3ccccc13)C(=O)OC)C2=O [Compound 8a, Methyl 6- and 7-(3-(1H-indol-3-yl)-1-methoxy-1-oxopropan-2-ylamino)-3-methyl-5,8-dioxo-5,8-dihydroisoquinoline-4-carboxylate] | 6620 ± 460 | 2540 ± 180 | 3630 ± 180 | 7560 ± 520 | – | 1.45 | – | – | – | – | – | – | – | – | – | –
COC(=O)c1c(C)ncc2c1C(=O)C(N[C@H](Cc1ccccc1)C(=O)OC)=CC2=O [Compound 10b, Methyl 6- and 7-(1-methoxy-1-oxo-3-phenylpropan-2-ylamino)-3-methyl-5,8-dioxo-5,8-dihydroisoquinoline-4-carboxylate] | 1780 ± 120 | 1980 ± 110 | 1200 ± 50 | 3030 ± 170 | – | 0.82 | 580 to 3180 | 71.5 to 73 | – | – | – | – | – | – | – | –
COC(=O)c1c(C)ncc2c1C(=O)C(Br)=C(NC(C)C(=O)OC)C2=O (stereo not drawn) [Compound 12, Methyl 6-bromo-7-(1-methoxy-1-oxopropan-2-ylamino)-3-methyl-5,8-dioxo-5,8-dihydroisoquinoline-4-carboxylate] | 2860 ± 170 | 2070 ± 110 | 1960 ± 110 | 3760 ± 260 | – | 1.10 | – | 120.5 to 122 | – | – | – | – | – | – | – | –
COC(=O)c1c(C)ncc2c1C(=O)C(Br)=C(NC(C(=O)OC)C(C)C)C2=O (stereo not drawn) [Compound 13a] | 2980 ± 210 | 1920 ± 130 | 2280 ± 90 | 4010 ± 190 | – | 1.15 | – | 105.2 to 107 | – | – | – | – | – | – | – | –
COC(=O)c1c(C)ncc2c1C(=O)C(NC(C(=O)OC)C(C)C)=C(Br)C2=O (stereo not drawn) [Compound 13b] | 2110 ± 110 | 2700 ± 140 | 3900 ± 310 | 8760 ± 610 | – | 0.41 | – | 105 to 106.6 | – | – | – | – | – | – | – | –
COC(=O)c1c(C)ncc2c1C(=O)C(Br)=C(NC(CC(C)C)C(=O)OC)C2=O (stereo not drawn) [Compound 14] | > 100000 | > 100000 | 920 ± 40 | 2210 ± 170 | – | – | – | 104.3 to 106.2 | > 100 | 1570 ± 200 | 670 ± 60 | 640 ± 60 | 500 ± 50 | > 45 | 2.62 | 500 to 670
COC(=O)c1c(C)ncc2c1C(=O)C(Br)=C(NC(Cc1ccccc1)C(=O)OC)C2=O (stereo not drawn) [Compound 15] | 4480 ± 270 | 2080 ± 130 | 2130 ± 120 | 4610 ± 360 | – | 1.52 | – | 125.2 to 127.5 | – | – | – | – | – | – | – | –
